Results taken from patent US12187758B2 (ROME Therapeutics, Inc., priority 2022, dated 2025).
pIC50: −log10 of the molar value.

What was measured:
THP1-Dual KO-TREX1 cells = experiment: THP1 TREX1 KO inhibition assay (type 1 interferon response); type: cell-based; details: Homo sapiens, 144 h, type 1 interferon (QUANTI-LUC), 1 μM 5-aza-2′-deoxycytidine, six days
Method in brief: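 THP1-Dual KO-TREX1 cells were treated with a dose titration of compound, alone or with 1 μM 5-aza-2′-deoxycytidine, for six days at 37 °C. Type 1 interferon was read as secreted luciferase (QUANTI-LUC) in the supernatant, and viability by CellTiter-Glo luminescence.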

[1] = Mitochondria toxicity assay with PC3 cells, in-cell ELISA COX-1; type: cell-based; details: 5 days treatment
Method in brief: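 This in-cell ELISA was run on fixed, permeabilized PC3 cells after 5-day exposure to titrated compound, with cytotoxicity measured on a duplicate plate. Results are reported as categories A (<1.0 μM) to E (>100.0 μM).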

| SMILES | pIC50 (THP1-Dual KO-TREX1 cells) | pIC50 [1] |
| --- | --- | --- |
| Nc1ccn([C@H]2C[C@H](O)[C@](CO)(CCl)O2)c(=O)n1 [Compound 2, 4-amino-1-((2R,4S,5R)-5-(chloromethyl)-4-hydroxy-5-(hydroxymethyl)tetrahydrofuran-2-yl)pyrimidin-2(1H)-one] | 7.00 to 7.30 | > 6.00 |
| C[C@@H]1[C@H](n2ccc(N)nc2=O)O[C@@](CO)(CCl)[C@H]1O [Compound 12, 4-amino-1-((2R,3S,4S,5R)-5-(chloromethyl)-4-hydroxy-5-(hydroxymethyl)-3-methyltetrahydrofuran-2-yl)pyrimidin-2(1H)-one] | < 6.00 | < 4.00 |
| CO[C@@H]1[C@H](n2ccc(N)nc2=O)O[C@@](CO)(CCl)[C@H]1O [Compound 13, 4-amino-1-((2R,3S,4S,5R)-5-(chloromethyl)-4-hydroxy-5-(hydroxymethyl)-3-methoxytetrahydrofuran-2-yl)pyrimidin-2(1H)-one] | < 6.00 | < 4.00 |
| Nc1nc(=O)n([C@H]2C[C@H](O)[C@](CO)(CCl)O2)cc1F [Compound 14, 4-amino-1-((2R,4S,5R)-5-(chloromethyl)-4-hydroxy-5-(hydroxymethyl)tetrahydrofuran-2-yl)-5-fluoropyrimidin-2(1H)-one] | 6.60 to 7.00 | < 4.00 |
| Nc1ncnc2c1ncn2[C@H]1C[C@H](O)[C@](CO)(CCl)O1 [Compound 15, (2R,3S,5R)-5-(6-amino-9H-purin-9-yl)-2-(chloromethyl)-2-(hydroxymethyl)tetrahydrofuran-3-ol] | < 6.00 | < 4.00 |
| Nc1ccn([C@H]2C[C@H](O)[C@](CO)(C3CC3)O2)c(=O)n1 [Compound 16, 4-amino-1-((2R,4S,5R)-5-cyclopropyl-4-hydroxy-5-(hydroxymethyl)tetrahydrofuran-2-yl)pyrimidin-2(1H)-one] | < 6.00 | < 4.00 |
| C[C@@H]1[C@H](n2ccc(N)nc2=O)O[C@](C)(CO)[C@H]1O [Compound 19, 4-amino-1-((2R,3S,4S,5R)-4-hydroxy-5-(hydroxymethyl)-3,5-dimethyltetrahydrofuran-2-yl)pyrimidin-2(1H)-one] | < 6.00 | 4.30 to 5.00 |
| C#C[C@]1(CO)O[C@@H](n2cnc3c(N)nc(Cl)nc32)C[C@@H]1O [Compound 25] | < 6.00 | 4.00 to 4.30 |
| Nc1ccn([C@@H]2O[C@@](CO)(CCl)[C@@H](O)[C@@H]2F)c(=O)n1 [Compound 40, 4-amino-1-((2R,3S,4R,5R)-5-(chloromethyl)-3-fluoro-4-hydroxy-5-(hydroxymethyl)tetrahydrofuran-2-yl)pyrimidin-2(1H)-one] | < 6.00 | < 4.00 |
| CC[C@]1(CO)O[C@@H](n2ccc(N)nc2=O)C[C@@H]1O [Compound 44, 4-amino-1-((2R,4S,5R)-5-ethyl-4-hydroxy-5-(hydroxymethyl)tetrahydrofuran-2-yl)pyrimidin-2(1H)-one] | < 6.00 | < 4.00 |

Further lines, with some results ahead:

| pIC50 (THP1-Dual KO-TREX1 cells) | SMILES | pIC50 [1] |
| --- | --- | --- |
| < 6.00 | CC[C@]1(CO)O[C@@H](n2ccc(N)nc2=O)[C@@H](F)[C@@H]1O [Compound 51, 4-amino-1-((2R,3S,4R,5R)-5-ethyl-3-fluoro-4-hydroxy-5-(hydroxymethyl)tetrahydrofuran-2-yl)pyrimidin-2(1H)-one] | 4.30 to 5.00 |
| < 6.00 | [N-]=[N+]=N[C@]1(CO)O[C@@H](n2cc(F)c(N)nc2=O)C[C@@H]1O [Compound 61, 4-amino-1-((2R,4S,5R)-5-azido-4-hydroxy-5-(hydroxymethyl)tetrahydrofuran-2-yl)-5-fluoropyrimidin-2(1H)-one] | < 4.00 |
| 6.00 to 6.60 | Nc1nc(=O)n([C@@H]2O[C@@](CO)(CCl)[C@@H](O)[C@@H]2F)cc1F [Compound 67, 4-amino-1-[(2R,3S,4R,5R)-5-(chloromethyl)-3-fluoro-4-hydroxy-5-(hydroxymethyl)oxolan-2-yl]-5-fluoropyrimidin-2-one] | < 4.00 |
| < 6.00 | Nc1nc(=O)n([C@@H]2O[C@@](CO)(CF)[C@@H](O)[C@@H]2O)cc1F [Compound 72, 4-amino-5-fluoro-1-((2R,3S,4S,5R)-5-(fluoromethyl)-3,4-dihydroxy-5-(hydroxymethyl)tetrahydrofuran-2-yl)pyrimidin-2(1H)-one] | 4.00 to 4.30 |
| 6.00 to 6.60 | Nc1nc(=O)n([C@@H]2O[C@@](CO)(CF)[C@@H](O)[C@@H]2F)cc1F [Compound 85, 4-amino-5-fluoro-1-[(2R,3S,4R,5R)-3-fluoro-5-(fluoromethyl)-4-hydroxy-5-(hydroxymethyl)oxolan-2-yl] pyrimidin-2-one] | < 4.00 |
| 6.00 to 6.60 | Nc1nc(=O)n([C@H]2C[C@H](O)[C@](CO)(CBr)O2)cc1F [Compound 88, 4-amino-1-((2R,4S,5R)-5-(bromomethyl)-4-hydroxy-5-(hydroxymethyl)tetrahydrofuran-2-yl)-5-fluoropyrimidin-2(1H)-one] | 4.30 to 5.00 |
